Data as given in patent publication US10874743B2, “IRAK degraders and uses thereof” (Kymera Therapeutics, Inc., priority 2017, dated 2020).

These compounds were tested against T1, IRAK4 (Homo sapiens, UniProt Q9NWZ3) (assay: THP-1 degradation assay (western blot, % IRAK4 degraded after 24 hours)). Conditions: THP-1 cells.
T1 sequence (Q9NWZ3 1-460): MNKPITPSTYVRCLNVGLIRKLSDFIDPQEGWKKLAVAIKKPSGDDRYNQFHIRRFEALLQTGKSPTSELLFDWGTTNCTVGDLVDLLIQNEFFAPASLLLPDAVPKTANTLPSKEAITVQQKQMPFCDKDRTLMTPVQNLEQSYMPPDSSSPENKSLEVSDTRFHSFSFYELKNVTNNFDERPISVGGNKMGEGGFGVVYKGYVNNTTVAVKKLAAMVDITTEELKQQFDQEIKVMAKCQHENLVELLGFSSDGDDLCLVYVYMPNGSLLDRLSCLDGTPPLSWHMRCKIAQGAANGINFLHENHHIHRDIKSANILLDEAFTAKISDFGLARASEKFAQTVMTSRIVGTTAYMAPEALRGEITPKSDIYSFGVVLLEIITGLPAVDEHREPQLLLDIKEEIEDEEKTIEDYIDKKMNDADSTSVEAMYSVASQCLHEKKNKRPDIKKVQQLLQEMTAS
Type: cell-based
Set-up: endogenous in cells
Procedure: Compounds were reconstituted in DMSO to make stock solutions at concentration of 60 mM. THP-1 and OCI-LY10 cells were maintained in RPMI-1640 medium containing 10% FBS, 0.5 μM 2-ME or 20% FBS, 55 μM 2-ME, and 1% L-Glutamine respectively.
Cells were seeded into 6-well plates with 5e6 cells per well. 200 μL of diluted compounds were added to cells to the final concentration of 0.003-10 μM. After 4 or 24 hour-incubation at 37° C., cells were collected into 2 mL Eppendorf tubes and centrifuged at 1,000 rpm for 5 min. The cell pellets were washed with 1×DPBS once and resuspended in 60 μL lysis buffer. The cells were lysed on ice for 10 min, then centrifuged at 14,000 rpm for 10 min at 4° C. and the supernatants were collected for western blots. For THP-1 cells, the lysis buffer contained 40 mM pH 7.4 HEPES, 140 mM NaCl, 2.5 mM EDTA, 1% NP-40, 0.1% SDS, and protease inhibitor cocktail (Roche, Cat. No. 05892791001). For OCI-LY10 cells, RIPAbuffer (Thermo Fisher, 89900) with Halt Protease and Phosphatase Inhibitor Cocktail (Thermo Fisher, 78446) was applied.
The protein concentration of cell lysates was quantified with Pierce™ BCA Protein Assay Kit (Pierce, 23227). Albumin standards at different concentrations were prepared, involving 2,000 ug/mL, 1,500 ug/mL, 1,000 ug/mL, 750 ug/mL, 500 ug/mL, 250 ug/mL, 125 ug/mL, and 25 ug/mL. BCA working reagents were prepared by mixing BCA reagent A with reagent B in 50:1 ratio. 200 μL of the BCA working reagents were added to 25 μL of BCA standard or cell lysates in microplate, and mixed thoroughly on a plate shaker for 30 seconds. After incubation at 37° C. for 30 min, the absorbance of samples at 562 nm were measured with EnVision Plate Reader.
Protein lysates were prepared in NuPAGE™ LDS sample buffer and NuPAGE™ sample reducing agent, and incubated at 95° C. for 5 min. For western blots, 20-25 μg of total proteins were resolved in 4-12% Bis-Tris gels (Introgen, WG1403A) or 10% Bis-Tris Midi gels (Invitrogen, WG1202BOX) running with 1×MOPS SDS running buffer (Invitrogen, NP0001) or 1×MES SDS running buffer (Invitrogen, NP0002). The proteins were transferred to low fluorescence PVDF membranes using the Trans-Blot Turbo Transfer System. Membranes were then blocked in Odyssey blocking buffer at RT for 1 h followed by primary incubation at 4° C. overnight. The primary antibodies were IRAK1 rabbit monoclonal antibody (CST, #4504S, 1:500), IRAK3 rabbit polyclonal antibody (CST, #4369, 1:500), IRAK4 rabbit polyclonal antibody (CST, #4363S, 1:1,000), MyD88 rabbit monoclonal antibody (Abcam, Ab133739, 1:2,000), j3-actin mouse monoclonal antibody (Sigma, A5441, 10,000), and Gapdh mouse monoclonal antibody (Millipore, MAB374, 1:5,000). Membranes were washed three times with 1×TBST, and then incubated with IR Dye 800 CW Goat anti-rabbit (Licor, #926-32211) and IR Dye 700 CW Goat anti-mouse (Licor, #926-68070) secondary antibodies in 1:10,000 dilution at RT for 1 h. The western blot images were obtained using Odyssey Imaging System.
THP-1 results at 24 hours. The letter codes indicate the percentage of IRAK4 degraded after 24 hours: A (>50% degradation), B (>20-50% degradation) and C (<20% degradation)

Row | THP-1 24 h % IRAK4 Degradation | Compound
1 | B (>20-50% degradation) | O=C1CCC(N2C(=O)c3cccc(NCCOCCNC(=O)[C@H]4CC[C@H](NC(=O)c5cnc(Nc6ccc7cnccc7n6)cc5NC5CC5)CC4)c3C2=O)C(=O)N1 (stereo partly shown) [I-25, 6-((1,6-naphthyridin-2-yl)amino)-4-(cyclopropylamino)-N-((1r,4r)-4-((2-(2-((2-(2,6-dioxopiperidin-3-yl)-1,3-dioxoisoindolin-4-yl)amino)ethoxy)ethyl)carbamoyl)cyclohexyl)nicotinamide]
2 | B (>20-50% degradation) | O=C1CCC(N2C(=O)c3cccc(NCCOCCOCCOCCOCC(F)CNC(=O)c4cnc(Nc5ccc6cnccc6n5)cc4NC4CC4)c3C2=O)C(=O)N1 (stereo not shown) [I-50]
3 | A (>50% degradation) | COc1cc(Nc2nc(N[C@H]3CCCC[C@H]3N)n3ccnc3c2C(N)=O)cc(OCCOCCOCCOCC(=O)N[C@H](C(=O)N2C[C@H](O)C[C@H]2C(=O)NCc2ccc(-c3scnc3C)cc2)C(C)(C)C)c1 [I-162, 5-[[(1S,2R)-2-aminocyclohexyl]amino]-7-[3-[2-[2-[2-[2-[[(1S)-1-[(2S,4R)-4-hydroxy-2-[[4-(4-methylthiazol-5-yl)phenyl]methylcarbamoyl]pyrrolidine-1-carbonyl]-2,2-dimethyl-propyl]amino]-2-oxo-ethoxy]ethoxy]ethoxy]ethoxy]-5-methoxy-anilino]imidazo[1,2-c]pyrimidine-8-carboxamide]
4 | B (>20-50% degradation) | O=C(COc1cccc2c1C(=O)N(C1CCC(=O)NC1=O)C2=O)NCCCCCOCCOCCCCCNC(=O)[C@H]1CC[C@H](NC(=O)c2cnc(Nc3ccc4cnccc4n3)cc2NC2CC2)CC1 (stereo partly shown) [I-5]
5 | C (<20% degradation) | O=C(COc1cccc2c1C(=O)N(C1CCC(=O)NC1=O)C2=O)NCCOCCOCCOCC(F)CNC(=O)c1cnc(Nc2ccc3cnccc3n2)cc1NC1CC1 (stereo not shown) [I-96]
6 | C (<20% degradation) | Cc1ncsc1-c1ccc(CNC(=O)[C@@H]2C[C@@H](O)CN2C(=O)[C@@H](NC(=O)COCCOCCOCC(F)CNC(=O)c2cnc(Nc3ccc4cnccc4n3)cc2NC2CC2)C(C)(C)C)cc1 (stereo partly shown) [I-120]
7 | B (>20-50% degradation) | O=C(COc1cccc2c1C(=O)N(C1CCC(=O)NC1=O)C2=O)NCCOCCNC(=O)[C@H]1CC[C@H](NC(=O)c2cnc(Nc3ccc4cnccc4n3)cc2NC2CC2)CC1 (stereo partly shown) [I-6]
8 | C (<20% degradation) | O=C1CCC(N2C(=O)c3cccc(NCCCOCCCNC(=O)[C@H]4CC[C@H](NC(=O)c5cnc(Nc6ccc7cnccc7n6)cc5NC5CC5)CC4)c3C2=O)C(=O)N1 (stereo partly drawn) [I-30, 6-((1,6-naphthyridin-2-yl)amino)-4-(cyclopropylamino)-N-((1R,4R)-4-((3-(3-((2-(2,6-dioxopiperidin-3-yl)-1,3-dioxoisoindolin-4-yl)amino)propoxy)propyl)carbamoyl)cyclohexyl)nicotinamide]
9 | C (<20% degradation) | Cc1ncsc1-c1ccc(CNC(=O)[C@@H]2C[C@@H](O)CN2C(=O)[C@@H](NC(=O)COCCOCCn2ccc3c(Nc4nc(N[C@@H]5CCCC[C@@H]5N)cc5[nH]cnc(=O)c45)cccc32)C(C)(C)C)cc1 [I-189, (2S,4R)-1-[(2S)-2-[[2-[2-[2-[4-[[7-[[(1R,2S)-2-aminocyclohexyl]amino]-4-oxo-3H-pyrido[4,3-d]pyrimidin-5-yl]amino]indol-1-yl]ethoxy]ethoxy]acetyl]amino]-3,3-dimethyl-butanoyl]-4-hydroxy-N-[[4-(4-methylthiazol-5-yl)phenyl]methyl]pyrrolidine-2-carboxamide]
10 | C (<20% degradation) | O=C(COc1cccc2c1C(=O)N(C1CCC(=O)NC1=O)C2=O)NCCOCCOCC(F)CNC(=O)c1cnc(Nc2ccc3cnccc3n2)cc1NC1CC1 (stereo not shown) [I-99]
11 | C (<20% degradation) | CN(CCOCCOCCNc1cccc2c1C(=O)N(C1CCC(=O)NC1=O)C2=O)C(=O)[C@H]1CC[C@H](NC(=O)c2cnc(Nc3ccc4cnccc4n3)cc2NC2CC2)CC1 (stereo partly drawn) [I-40, 6-((1,6-naphthyridin-2-yl)amino)-4-(cyclopropylamino)-N-((1R,4R)-4-((2-(2-(2-((2-(2,6-dioxopiperidin-3-yl)-1,3-dioxoisoindolin-4-yl)amino)ethoxy)ethoxy)ethyl)(methyl)carbamoyl)cyclohexyl)nicotinamide]
12 | A (>50% degradation) | Cc1ncsc1-c1ccc(CNC(=O)[C@@H]2C[C@@H](O)CN2C(=O)[C@H](NC(=O)CCCCNC(=O)[C@H]2CC[C@H](NC(=O)c3cnc(Nc4ccc5cnccc5n4)cc3NC3CC3)CC2)C(C)(C)C)cc1 [I-15]
13 | C (<20% degradation) | Cc1ncsc1-c1ccc(CNC(=O)[C@@H]2C[C@@H](O)CN2C(=O)[C@H](NC(=O)CCCCCOCCCCCCCNC(=O)[C@H]2CC[C@H](NC(=O)c3cnc(Nc4ccc5cnccc5n4)cc3NC3CC3)CC2)C(C)(C)C)cc1 [I-14]
14 | C (<20% degradation) | COc1cc(Nc2nc(N[C@H]3CCCC[C@H]3N)n3ccnc3c2C(N)=O)cc(OCCOCCOCCOCCOCCNc2cccc3c2C(=O)N(C2CCC(=O)NC2=O)C3=O)c1 (stereo partly shown) [I-199]
15 | C (<20% degradation) | Cc1ncsc1-c1ccc(CNC(=O)[C@@H]2C[C@@H](O)CN2C(=O)[C@@H](NC(=O)COCCOCCOCCOCCNC(=O)Cn2ccc3c(Nc4nc(N[C@@H]5CCCC[C@@H]5N)cc5[nH]cnc(=O)c45)cccc32)C(C)(C)C)cc1 [I-195, (2S,4R)-1-[(2S)-2-[2-[2-[2-[2-[2-[[2-[4-[[7-[[(1R,2S)-2-Aminocyclohexylamino]-4-oxo-3H-pyrido[4,3-d]pyrimidin-5-yl]amino]indol-1-yl]acetyl]amino]ethoxy]ethoxy]ethoxy]ethoxy]acetyl]amino]-3,3-dimethyl-butanoyl]-4-hydroxy-N-[[4-(4-methylthiazol-5-yl)phenyl]methyl]pyrrolidine-2-carboxamide]
16 | C (<20% degradation) | O=C(COc1cccc2c1C(=O)N(C1CCC(=O)NC1=O)C2=O)NCCCCCOCCCCCNC(=O)[C@H]1CC[C@H](NC(=O)c2cnc(Nc3ccc4cnccc4n3)cc2NC2CC2)CC1 (stereo partly shown) [I-3]
17 | C (<20% degradation) | COc1cc(Nc2nc(N[C@H]3CCCC[C@H]3N)n3ccnc3c2C(N)=O)cc(OC)c1OCCOCCOCCOCCOCC(=O)N[C@H](C(=O)N1C[C@H](O)C[C@H]1C(=O)NCc1ccc(-c2scnc2C)cc1)C(C)(C)C [I-164]
18 | C (<20% degradation) | O=C(COc1cccc2c1C(=O)N(C1CCC(=O)NC1=O)C2=O)NCCNC(=O)[C@H]1CC[C@H](NC(=O)c2cnc(Nc3ccc4cnccc4n3)cc2NC2CC2)CC1 (stereo partly shown) [I-8]
19 | C (<20% degradation) | COc1cc(Nc2nc(N[C@H]3CCCC[C@H]3N)n3ccnc3c2C(N)=O)cc(OC)c1OCCOCCOCCOCC(=O)N[C@H](C(=O)N1C[C@H](O)C[C@H]1C(=O)NCc1ccc(-c2scnc2C)cc1)C(C)(C)C [I-165]
